Assay results from patent US20130309736A1, “COMPOSITIONS AND METHODS FOR MALATE AND FUMARATE PRODUCTION” (CARGILL, INCORPORATED, priority 2011, published 2013).

Assays:
wild-type yeast strains = assay: Additional primary screen: growth on microtiter plates with malate; assay type: cell-based; conditions: ten strains of 24 re-tested; 200 g/L malate, pH 2.85, microtiter plates, overnight
Method: For the primary screening procedure, 91 wild-type yeast strains were screened for growth on microtiter plates at pH 2.85 with 0 g/L, 150 g/L, 300 g/L, or 350 g/L pH 2.85 malate using the same protocol used for range finding. A fresh YPD plate was used for each strain, and a slurry with an OD600 of around 4 was made in YPD media, pH 3.0. The slurry was used to inoculate each well to an OD600 of 0.05. Plates were covered with a gas permeable membrane, and incubated in a 30° C./300 rpm shaker overnight. Optical densities of each well were measured at 600 nm in a GENios model plate reader, and plates were observed visually for growth. To account for plate-to-plate variability, I. orientalis PTA-6658 was included on all plates as a control. […] As such, an additional screen was added wherein the 24 strains that grew as well or better than the I. orientalis control strain were re-tested. […] These ten strains were advanced to the secondary screens. […] However, it is possible that one or more such strains could nonetheless meet the minimum requirements for a commercially viable fermentation process.

[1] = system: Issatchenkia orientalis ATCC 60585; assay: Glucose consumption rate in YPD shake flasks (second secondary screen); assay type: cell-based
Method: (§1) For the second secondary screen, glucose consumption was measured in YPD media containing 0 g/L malate at pH 3.0 or 200 g/L malate at pH 2.85. Shake flasks were inoculated with biomass harvested from seed flasks grown overnight to an OD600 of 6 to 10. 250 mL baffled glycolytic assay flasks (50 mL working volume) were inoculated to an OD600 of 0.1 and grown at 250 RPM and 30° C. Samples were taken throughout the time course of the assay and analyzed for glucose consumption using a 2700 Biochemistry Analyzer (Yellow Springs Instruments, YSI). The resulting data was plotted and glucose consumption rates were established.

[2] = system: Candida sorbosivorans CD1978; assay: as above; assay type: cell-based
Method: as §1

[3] = system: Candida guilliermondii ATCC 20118; assay: as above; assay type: cell-based
Method: as §1

[4] = system: Candida vanderwaltii MUCL 30000; assay: as above; assay type: cell-based
Method: as §1

[5] = system: Issatchenkia orientalis ATCC PTA-6658; assay: as above; assay type: cell-based
Method: as §1
(§2) The same procedures were utilized to screen, rate, and score the original 91 wild-type yeast strains from the primary screen with media containing 0, 30, 45, and 60 g/L lactic acid at pH 3.0 (˜80% free acid). Due to difficulties in properly scoring some very weak growth that occasionally occurred at 60 g/L, 20 strains were re-tested in the primary screen. Of these 20 strains, eight were eliminated due to very slow growth relative to the rest of the test group. The remaining 12 strains were advanced into secondary screening. The secondary screen for lactic acid was the same as that described above for malate, except for changes in concentrations and pH values. Growth rates were measured at 0 g/L lactic acid, pH 3.0 and 50 g/L lactic acid, pH 2.85, and glucose consumption rates were measured in the presence of 50 g/L lactic acid, pH 2.85. Normalized values and weighted and summed scores were calculated for each strain as described above for malate.

[6] = system: Candida sorbosivorans ATCC 38619; assay: as above; assay type: cell-based
Method: as §1, §2

[7] = system: Candida lambica ATCC 38617; assay: as above; assay type: cell-based
Method: as §1, §2

[8] = system: Saccharomyces bulderi ATCC MYA-404; assay: as above; assay type: cell-based
Method: as §1, §2

[9] = system: Issatchenkia orientalis ATCC 24210; assay: as above; assay type: cell-based
Method: as §1, §2

[10] = system: Issatchenkia orientalis CD1822; assay: as above; assay type: cell-based
Method: as §1, §2

[11] = system: Issatchenkia orientalis ATCC 60585; assay: Growth rate in YPD shake flasks (first secondary screen); assay type: cell-based
Method: (§3) For the first secondary screen, growth rates were measured in YPD media containing 0 g/L malate at pH 3.0 or 200 g/L malate at pH 2.85. Shake flasks were inoculated with biomass harvested from seed flasks grown overnight to an OD600 of 6 to 10. 250 mL baffled growth rate flasks (50 mL working volume) were inoculated to an OD600 of 0.1 and grown at 250 rpm and 30° C. Samples were taken throughout the time course of the assay and analyzed for biomass growth via OD600. The resulting OD600 data was plotted and growth rates were established.

[12] = system: Candida sorbosivorans CD1978; assay: as above; assay type: cell-based
Method: as §3

[13] = system: Candida guilliermondii ATCC 20118; assay: as above; assay type: cell-based
Method: as §3

[14] = system: Candida vanderwaltii MUCL 30000; assay: as above; assay type: cell-based
Method: as §3

[15] = system: Issatchenkia orientalis ATCC PTA-6658; assay: as above; assay type: cell-based
Method: as §3, §2

[16] = system: Candida sorbosivorans ATCC 38619; assay: as above; assay type: cell-based
Method: as §3, §2

[17] = system: Candida lambica ATCC 38617; assay: as above; assay type: cell-based
Method: as §3, §2

[18] = system: Saccharomyces bulderi ATCC MYA-404; assay: as above; assay type: cell-based
Method: as §3, §2

[19] = system: Issatchenkia orientalis ATCC 24210; assay: as above; assay type: cell-based
Method: as §3, §2

[20] = system: Issatchenkia orientalis CD1822; assay: as above; assay type: cell-based
Method: as §3, §2

[21] = system: seven wild-type yeast strains; assay: Range finding: overnight growth in microtiter wells with malate; assay type: cell-based; conditions: YPD, 30° C.
Method: The range of malate concentrations to utilize in primary screening procedures was determined by evaluating the ability of seven wild-type yeast strains (Candida sonorensis, Candida zemplinina, I. orientalis strain PTA-6658, I. orientalis strain CD1822, Kluyveromyces lactis, K. marxianus, S. cerevisiae strain CENPK 113-7D) to grow on media containing varying levels of malate. Cells were streaked onto YPD plates and grown overnight. A cell slurry with an OD600 of around 4 was made in YPD media, pH 3.0, and this slurry was used to inoculate microtiter wells containing various concentrations of malate to an OD600 of 0.05. Plates were covered with a gas permeable membrane and incubated in a 30° C./300 rpm shaker overnight. The optical densities of each well were measured at a wavelength of 600 nm in a GENios model plate reader (Tecan), and plates were observed visually for growth. The highest malate concentration that one or more of the strains grew in (350 g/L) was chosen as the upper range for primary screening procedure.

[22] = 15.5° C.; cited from earlier work
yeast cells = assay: EMS mutagenesis, kill rate; assay type: cell-based; conditions: 3 μL EMS in 200 μL cell suspension (OD600 around 10), approximately one hour
Method: For example, yeast cells from a fresh YP (yeast extract/peptone)+20 g/L glucose plate or liquid culture (OD600 1-4) are resuspended in sterile water to an OD600 of around 10. 200 μL aliquots of this cell suspension are pipetted into individual tubes and exposed to 3 μL […] (EMS) for approximately one hour, which kills around 65% of the cells. Higher EMS concentrations can also be used to increase the kill rate. After exposure, cells are neutralized with 5% sodium thiosulfate, washed in PBS buffer, recovered in rich media for approximately four hours, and cultured on selective media. Mock samples (no EMS) are also run to ensure that the conditions are selective. Alternatively, cell can be mutagenized using UV irradiation.

[23] = Candida sorbosivorans ATCC 24120, scale 0 to 1
[24] = Candida sorbosivorans ATCC 38619, YPD, 30° C.
[25] = malate, slope of growth rates against acid concentration, scale 0 to 1

Compound: O=C(O)CC(O)C(=O)O (stereo not drawn) [malate, hydroxybutanedioc acid]
- optical density relative to the same strain in 0 g/L malic acid (wild-type yeast strains): greater than or equal to 50%
- Glucose consumption rate 200 g/L malate (pH 2.85) ([1]; YPD, 30° C.): 2.7 g L^−1 h^−1
- Normalized grade: Glucose consumption rate 200 g/L malate (pH 2.85) ([1]; scale 0 to 1): 0.70
- Glucose consumption rate 200 g/L malate (pH 2.85) ([2]; YPD, 30° C.): 1.85 g L^−1 h^−1
- Normalized grade: Glucose consumption rate 200 g/L malate (pH 2.85) ([2]; scale 0 to 1): 0.28
- Glucose consumption rate 200 g/L malate (pH 2.85) ([3]; Candida guilliermondii ATCC 20118, YPD, 30° C.): 1.9 g L^−1 h^−1
- Normalized grade: Glucose consumption rate 200 g/L malate (pH 2.85) ([3]; Candida guilliermondii, scale 0 to 1): 0.30
- Glucose consumption rate 200 g/L malate (pH 2.85) ([4]; YPD, 30° C.): 1.3 g L^−1 h^−1
- Normalized grade: Glucose consumption rate 200 g/L malate (pH 2.85) ([4]; scale 0 to 1): 0.00
- Glucose consumption rate 200 g/L malate (pH 2.85) ([5]; YPD, 30° C.): 3.3 g L^−1 h^−1
- Normalized grade: Glucose consumption rate 200 g/L malate (pH 2.85) ([5]; scale 0 to 1): 1.00
- Normalized grade: Glucose consumption rate 200 g/L malate (pH 2.85) [6, 23]: 0.05
- Glucose consumption rate 200 g/L malate (pH 2.85) [6, 24]: 1.4 g L^−1 h^−1
- Glucose consumption rate 200 g/L malate (pH 2.85) ([7]; YPD, 30° C.): 3.2 g L^−1 h^−1
- Normalized grade: Glucose consumption rate 200 g/L malate (pH 2.85) ([7]; scale 0 to 1): 0.95
- Glucose consumption rate 200 g/L malate (pH 2.85) ([8]; YPD, 30° C.): 3.15 g L^−1 h^−1
- Normalized grade: Glucose consumption rate 200 g/L malate (pH 2.85) ([8]; scale 0 to 1): 0.93
- Glucose consumption rate 200 g/L malate (pH 2.85) ([9]; YPD, 30° C.): 3.1 g L^−1 h^−1
- Normalized grade: Glucose consumption rate 200 g/L malate (pH 2.85) ([9]; scale 0 to 1): 0.90
- Glucose consumption rate 200 g/L malate (pH 2.85) ([10]; YPD, 30° C.): 3.3 g L^−1 h^−1
- Normalized grade: Glucose consumption rate 200 g/L malate (pH 2.85) ([10]; scale 0 to 1): 1.00
- Growth rate 200 g/L malate (pH 2.85) ([11]; YPD, 30° C.): 0.36 h^−1
- Normalized grade: Growth rate slope [11, 25]: 0.54
- Normalized grade: Growth rate 200 g/L malate (pH 2.85) ([11]; scale 0 to 1): 0.27
- Growth rate 200 g/L malate (pH 2.85) ([12]; YPD, 30° C.): 0.34 h^−1
- Normalized grade: Growth rate slope [12, 25]: 0.00
- Normalized grade: Growth rate 200 g/L malate (pH 2.85) ([12]; scale 0 to 1): 0.09
- Growth rate 200 g/L malate (pH 2.85) ([13]; YPD, 30° C.): 0.42 h^−1
- Normalized grade: Growth rate slope [13, 25]: 1.00
- Normalized grade: Growth rate 200 g/L malate (pH 2.85) ([13]; scale 0 to 1): 0.82
- Growth rate 200 g/L malate (pH 2.85) ([14]; YPD, 30° C.): 0.39 h^−1
- Normalized grade: Growth rate slope [14, 25]: 0.92
- Normalized grade: Growth rate 200 g/L malate (pH 2.85) ([14]; scale 0 to 1): 0.55
- Growth rate 200 g/L malate (pH 2.85) ([15]; YPD, 30° C.): 0.44 h^−1
- Normalized grade: Growth rate slope [15, 25]: 0.67
- Normalized grade: Growth rate 200 g/L malate (pH 2.85) ([15]; scale 0 to 1): 1.00
- Normalized grade: Growth rate slope ([16]; Candida sorbosivorans ATCC 24120, malate, slope of growth rates against acid concentration, scale 0 to 1): 0.92
- Normalized grade: Growth rate 200 g/L malate (pH 2.85) [16, 23]: 0.36
- Growth rate 200 g/L malate (pH 2.85) [16, 24]: 0.37 h^−1
- Growth rate 200 g/L malate (pH 2.85) ([17]; YPD, 30° C.): 0.33 h^−1
- Normalized grade: Growth rate slope [17, 25]: 0.41
- Normalized grade: Growth rate 200 g/L malate (pH 2.85) ([17]; scale 0 to 1): 0.00
- Growth rate 200 g/L malate (pH 2.85) ([18]; YPD, 30° C.): 0.39 h^−1
- Normalized grade: Growth rate slope [18, 25]: 1.00
- Normalized grade: Growth rate 200 g/L malate (pH 2.85) ([18]; scale 0 to 1): 0.55
- Growth rate 200 g/L malate (pH 2.85) ([19]; YPD, 30° C.): 0.39 h^−1
- Normalized grade: Growth rate slope [19, 25]: 0.56
- Normalized grade: Growth rate 200 g/L malate (pH 2.85) ([19]; scale 0 to 1): 0.55
- Growth rate 200 g/L malate (pH 2.85) ([20]; YPD, 30° C.): 0.42 h^−1
- Normalized grade: Growth rate slope [20, 25]: 0.67
- Normalized grade: Growth rate 200 g/L malate (pH 2.85) ([20]; scale 0 to 1): 0.82
- highest malate concentration that one or more of the strains grew in [21]: 350 g/L

Compound: O=C(O)/C=C/C(=O)O [Fumarate, trans-butanedioic acid]
- water solubility [22]: 4.28 g/kg H2O

Compound: CCOS(C)(=O)=O [ethane methyl sulfonate]
- cells killed (yeast cells): around 65%
